Data on 13 compounds can be found in patent US10071110B2, “Phosphonate compounds” (priority 1999, dated 2018).

For data set [1], the system named is patients with steroid-induced osteoporosis. As to the kind of experiment: Stimulation of bone formation in humans with steroid-induced osteoporosis. The format is in vivo, human. The following applies: oral 0.1 to 100 mg/kg/day, one month to one year, vs placebo.
A further data set deals with postmenopausal women. The following applies: oral 0.1 to 100 mg/kg/day, two to three years, vs placebo.
In data set [2] the test system is Human cytomegalovirus (HCMV). The data set can be described thus: HCMV antiviral assay, HCMV DNA quantified by DNA hybridization in MRC-5 cells. The format is cell-based. The following applies: for Selectivity Index: CC50/EC50, Human CMV in MRC-5 (Table 2).
A further data set deals with HSV-1. As to the kind of experiment: HSV-1 antiviral assay, HSV DNA quantified by nucleic acid hybridization in MRC-5 cells. In kind it is cell-based. To be noted: CC50/EC50 (Table 7).
Data set [3] can be described thus: Cytotoxicity in CEM cells (CC50). In kind it is cell-based. The following applies: human; CEM cells (Table 1).
A short description of data set [4]: in vitro. The following applies: human.
A short description of data set [5]: in vitro. The following applies: African green monkey.
Data set [6] can be described thus: Cytotoxicity of test compounds in vitro, visual estimate of 50% reduction in cell number. To be noted: human, MRC-5 human lung fibroblast cells.
Data set [7] concerns MRC-5 human lung fibroblast cells. The description is as above. To be noted: MRC-5 cells.
The test system of the next data set is Calvarial cells. As to the kind of experiment: Dexamethasone-induced apoptosis in calvarial cells, trypan blue. The following applies: pretreatment at 10^−8 or greater for 1 hour, then 6 hours 10^−4 dexamethasone. In kind it is cell-based, mice.
Another data set relates to MLO-Y4 osteocytic cells. The following applies: at 10^−8 to 10^−5 M; 1 hour pretreatment, then 6 hours 10^−4 M dexamethasone.
For a further data set, the system named is ovariectomized rats. The following applies: subcutaneous 0 to 8 mg/kg/day, four to twelve weeks, vs ovariectomized controls.
In the next data set the test system is HIV-1. To be noted: Human immunodeficiency virus 1, 72 h, read-out: EC50, in HIV-1 plaque reduction assay.
For the next data set, the system named is HT4-6C cells. The data set can be described thus: Cytotoxicity by the method of Hostetler et al. (HIV study). The following applies: Table 6.

Where two headings read alike, the source gives them in different places. Where only a bound is given, the exact number is not on record here.

For “1-O-octadecyloxypropyl-amino-olpadronate”, in data set [1], the bone density result is reported as “bone density is increased” and the fractures result was “fractures are decreased”.

In the case of `CCCCCCCCCCCCCCCCCCOCCCOP(=O)(O)C(O)(CCCN)P(=O)(O)O` (stereo not drawn) [1-O-octadecyloxypropyl alendronate, 1-O-octadecyloxypropyl-alendronate], in the data set on postmenopausal women, the fractures entry was “fewer fractures” and the “rate of reduction in bone density” value is given as “lesser rate of reduction in bone density than the placebo group”.

On to `CCCCCCCCCCCCCCCCCCOCCCOP1(=O)COC(Cn2ccc(N)nc2=O)CO1` (stereo not drawn) [1-O-octadecylpropanediol-3-cCDV], for which the “Selectivity Index” value in data set [2] is given as 1 × 10^6; with HSV-1 it was 970.

On to `CCCCCCCCCCCCCCCCCCOCCCOP(=O)(O)CO[C@H](CO)Cn1ccc(N)nc1=O` [1-O-octadecylpropanediol-3-CDV], for which the “Selectivity Index” value in [2] is recorded as 1 × 10^6.

`CCCCCCCCCCCCCCCCOCCCOP(=O)(O)CO[C@H](CO)Cn1ccc(N)nc1=O` [HDP-CDV]: in [2], the “Selectivity Index” value is 5 × 10^6.

As to `CCCCCCCCCCCCCCCCCCOCCOP1(=O)COC(Cn2ccc(N)nc2=O)CO1` (stereo not drawn) [1-O-octadecylethanediol-2-cCDV], the “Selectivity Index” value in data set [2] is 1 × 10^6; in the data set with HSV-1, 40,000.

Turning to `Nc1ccn(C[C@H]2COP(=O)(O)CO2)c(=O)n1` [cCDV, cyclic cidofovir], the CC50 was above 1000 µM in data set [3], above 100 µM in the data set “in vitro [4]”, above 100 µM in “in vitro [5]” and above 1000 µM in data set [7] (as in Example 17 (Table 7)). In data set [6], the CC50 at 5 days is above 1000 µM.

For `CCCCCCCCCCCCCCCCCCOCCOP(=O)(O)COC(CO)Cn1ccc(N)nc1=O` (stereo not drawn) [1-O-octadecylethanediol-2-CDV], in the data set with HSV-1, the “Selectivity Index” value is recorded as 105,000.

For `CCCCCCCCCCCCCCCCOCCCOP(=O)(O)C(O)(CCCN)P(=O)(O)O` (stereo not drawn) [HDP-alendronate, 1-O-Hexadececylpropanediol-3-alendronate], in the data set on Calvarial cells, the “effect on dexamethasone-induced increase in % dead cells” value was “abolished the dexamethasone-induced increase in % dead cells”. In addition, in the data set on MLO-Y4 osteocytic cells, the “effect on dexamethasone-induced apoptosis (percentage of dead cells)” value was “inhibits dexamethasone-induced apoptosis”. Also, the “bone mass loss (ash weight of the femora)” value in the data set with ovariectomized rats is “less bone mass loss than the ovariectomized controls”.

Turning to `Nc1ccn(C[C@@H](CO)OCP(=O)(O)O)c(=O)n1` [CDV, cidofovir], the CC50 in data set [3] is 857 µM; in “in vitro [4]”, 89.8 µM; in the data set “in vitro [5]”, above 100 µM; in data set [7] (as in Example 17 (Table 7)) it was above 1000 µM. In addition, the CC50 at 5 days in data set [6] was above 1000 µM.

`Cc1cn([C@H]2C[C@H](N=[N+]=[N-])[C@@H](CO)O2)c(=O)[nH]c1=O` [AZT, zidovudine]: in the data set on HIV-1, the EC50 was determined as 0.007 µM.

hexadecyloxypropyl-adefovir [HDP-ADV]: the EC50 in [2] (Human CMV replication in MRC-5 human lung fibroblasts, DNA reduction (Table 2), read-out: EC50) amounted to 0.1 µM; in data set [2] (preliminary experiments (Table 1), MRC-5 cells, 5 days, read-out: HCMV EC50), 0.01 µM. Also, the CC50 (with HT4-6C cells; in [7] (5 days (Table 2))) was 6.5 µM throughout.

For `CCCCCCCCCCCCCCCCOP1(=O)COC(Cn2ccc(N)nc2=O)CO1` (stereo not drawn) [Hexadecyl-cCDV, hexadecyl-cCDV], the “Selectivity Index” value in data set [2] worked out at 163.

What is called EC50 is the midpoint of the concentration-response curve.
